Measured values: ChEMBL document CHEMBL3792284, “Synthesis of triazoloquinazolinone based compounds as tubulin polymerization inhibitors and vascular disrupting agents” (Eur J Med Chem, 2016)

Tests used:
A549 [1] = assay: Growth inhibition of human A549/ATCC cells after 48 hrs by sulforhodamine B assay; format: functional; details: A549, 48 h
SR [2] = assay: Growth inhibition of human SR cells at 10 uM after 48 hrs by sulforhodamine B assay; format: functional; details: read-out: GI
[3] = Growth inhibition of human SNB75 cells after 48 hrs by sulforhodamine B assay; format: functional; details: SNB-75, 48 h
[4] = Growth inhibition of human HCT15 cells at 10 uM after 48 hrs by sulforhodamine B assay; format: functional; details: HCT-15, 48 h, read-out: GI
HUVEC [5] = assay: Antiangiogenic activity in HUVEC assessed as disruption of capillaries after 6 hrs by inverted microscopic analysis; format: functional, cell-based; details: Homo sapiens
[6] = Growth inhibition of human SF295 cells at 10 uM after 48 hrs by sulforhodamine B assay; format: functional; details: SF-295, 48 h, read-out: GI
[7] = Growth inhibition of human HL-60(TB) cells after 48 hrs by sulforhodamine B assay; format: functional; details: HL-60, 48 h
Tubulin = Tubulin (Bos taurus, UniProt Q6B856+Q862L2+Q862F3); assay: Inhibition of bovine tubulin polymerization after 1 hr by fluorescence spectrometry; format: protein assay
[8] = Growth inhibition of human Caki1 cells after 48 hrs by sulforhodamine B assay; format: functional; details: CAKI-1, 48 h
MCF7 = assay: Growth inhibition of human MCF7 cells after 48 hrs by sulforhodamine B assay; format: functional; details: MCF7, 48 h
HT-29 [9] = assay: Growth inhibition of human HT-29 cells after 48 hrs by sulforhodamine B assay; format: functional; details: HT-29, 48 h
K562 [10] = assay: Growth inhibition of human K562 cells after 48 hrs by sulforhodamine B assay; format: functional; details: K562, 48 h
[11] = Cytotoxicity against human HL-60(TB) cells assessed as cell growth at 10 uM after 48 hrs by sulforhodamine B assay; format: functional; details: HL-60, 48 h, read-out: Activity
[12] = Growth inhibition of human HCT116 cells at 10 uM after 48 hrs by sulforhodamine B assay; format: functional; details: HCT-116, 48 h, read-out: GI
HUVEC [13] = assay: Inhibition of cell invasion of HUVEC after 24 hrs by crystal violet staining based Boyden chamber assay; format: functional; details: Homo sapiens
[14] = Growth inhibition of human NCI-ADR-RES cells at 10 uM after 48 hrs by sulforhodamine B assay; format: functional; details: read-out: GI
[15] = Growth inhibition of human PC3 cells after 48 hrs by sulforhodamine B assay; format: functional; details: PC-3, 48 h
[16] = Growth inhibition of human SF295 cells after 48 hrs by sulforhodamine B assay; format: functional; details: SF-295, 48 h
HUVEC [17] = assay: Inhibition of cell invasion of HUVEC at 0.1 uM after 24 hrs by crystal violet staining based Boyden chamber assay; format: functional; details: Homo sapiens
A549 [18] = assay: Growth inhibition of human A549/ATCC cells at 10 uM after 48 hrs by sulforhodamine B assay; format: functional; details: A549, 48 h, read-out: GI
K562 [19] = assay: Growth inhibition of human K562 cells at 10 uM after 48 hrs by sulforhodamine B assay; format: functional; details: K562, 48 h, read-out: GI
[20] = Growth inhibition of human SNB75 cells at 10 uM after 48 hrs by sulforhodamine B assay; format: functional; details: SNB-75, 48 h, read-out: GI
MDA-MB-468 [21] = assay: Growth inhibition of human MDA-MB-468 cells after 48 hrs by sulforhodamine B assay; format: functional; details: MDA-MB-468, 48 h
MDA-MB-435 [22] = assay: Growth inhibition of human MDA-MB-435 cells after 48 hrs by sulforhodamine B assay; format: functional; details: MDA-MB-435, 48 h
[23] = Growth inhibition of human HOP62 cells at 10 uM after 48 hrs by sulforhodamine B assay; format: functional; details: HOP-62, 48 h, read-out: GI
HUVEC [24] = assay: Inhibition of cell invasion of HUVEC at 1 uM after 24 hrs by crystal violet staining based Boyden chamber assay; format: functional; details: Homo sapiens
[25] = Growth inhibition of human HCT15 cells after 48 hrs by sulforhodamine B assay; format: functional; details: HCT-15, 48 h
[26] = Growth inhibition of human HCT116 cells after 48 hrs by sulforhodamine B assay; format: functional; details: HCT-116, 48 h
U-251 [27] = assay: Growth inhibition of human U251 cells after 48 hrs by sulforhodamine B assay; format: functional; details: U-251, 48 h
SR [28] = assay: Growth inhibition of human SR cells after 48 hrs by sulforhodamine B assay; format: functional
NCI-H522 [29] = assay: Cytotoxicity against human NCI-H522 cells assessed as cell growth at 10 uM after 48 hrs by sulforhodamine B assay; format: functional; details: NCI-H522, 48 h, read-out: Activity
MDA-MB-468 [30] = assay: Growth inhibition of human MDA-MB-468 cells at 10 uM after 48 hrs by sulforhodamine B assay; format: functional; details: MDA-MB-468, 48 h, read-out: GI
[31] = Growth inhibition of human NCI-ADR-RES cells after 48 hrs by sulforhodamine B assay; format: functional
HUVEC [32] = assay: Cytotoxicity against HUVEC at 1 uM after 72 hrs by MTS assay; format: cell-based; details: human
[33] = Growth inhibition of human COLO205 cells after 48 hrs by sulforhodamine B assay; format: functional; details: COLO 205, 48 h
A498 = assay: Growth inhibition of human A498 cells after 48 hrs by sulforhodamine B assay; format: functional; details: A498, 48 h
U-251 [34] = assay: Growth inhibition of human U251 cells at 10 uM after 48 hrs by sulforhodamine B assay; format: functional; details: U-251, 48 h, read-out: GI
[35] = Growth inhibition of human HL-60(TB) cells at 10 uM after 48 hrs by sulforhodamine B assay; format: functional; details: HL-60, 48 h, read-out: GI
[36] = Growth inhibition of human HOP62 cells after 48 hrs by sulforhodamine B assay; format: functional; details: HOP-62, 48 h
[37] = Growth inhibition of human COLO205 cells at 10 uM after 48 hrs by sulforhodamine B assay; format: functional; details: COLO 205, 48 h, read-out: GI
NCI-H522 [38] = assay: Growth inhibition of human NCI-H522 cells after 48 hrs by sulforhodamine B assay; format: functional; details: NCI-H522, 48 h
[39] = Growth inhibition of human Caki1 cells at 10 uM after 48 hrs by sulforhodamine B assay; format: functional; details: CAKI-1, 48 h, read-out: GI
HT-29 [40] = assay: Antiproliferative activity against human HT-29 cells at 10 uM after 72 hrs by MTS assay; format: functional; details: HT-29, 72 h
HT-29 [41] = assay: Growth inhibition of human HT-29 cells at 10 uM after 48 hrs by sulforhodamine B assay; format: functional; details: HT-29, 48 h, read-out: GI
HUVEC [42] = assay: Cytotoxicity against HUVEC assessed as inhibition of cell proliferation after 72 hrs by MTS assay; format: cell-based; details: Homo sapiens
SK-MEL-5 = assay: Growth inhibition of human SK-MEL-5 cells after 48 hrs by sulforhodamine B assay; format: functional; details: SK-MEL-5, 48 h
MDA-MB-435 [43] = assay: Cytotoxicity against human MDA-MB-435 cells assessed as cell growth at 10 uM after 48 hrs by sulforhodamine B assay; format: functional; details: MDA-MB-435, 48 h, read-out: Activity

Compound `COc1ccc(-c2nnc3n(C)c(=O)c4ccccc4n23)cc1O` has a GI50 (A549 [1]) of 1840 nM, an inhibition of growth at 10 µM (SR [2]) of 95% and a GI50 [3] of 41 nM. For the same compound, the inhibition of growth at 10 µM [4] was 81%, the Activity (HUVEC [5]) was “Dose-dependent effect” and the inhibition of growth at 10 µM [6] was 93%. The GI50 [7] was 64 nM, the IC50 (Tubulin) was 150 nM and the GI50 [8] was 1220 nM. For the same compound, the GI50 (MCF7) was 48 nM, the GI50 (HT-29 [9]) was 4310 nM and the GI50 (K562 [10]) was 40 nM. For the same compound, the growth at 10 µM [11] was 19%, the inhibition of growth at 10 µM [12] was 86% and the inhibition (HUVEC [13]) was “Dose-dependent effect”. For the same compound, the inhibition of growth at 10 µM [14] was 85%, the GI50 [15] was 1430 nM and the GI50 [16] was 1990 nM. For the same compound, the inhibition at 0.1 µM (HUVEC [17]) was 36%, the inhibition of growth at 10 µM (A549 [18]) was 82% and the inhibition of growth at 10 µM (K562 [19]) was 92%. It also gave an inhibition of growth at 10 µM [20] of 88%, a GI50 (MDA-MB-468 [21]) of 4330 nM and a GI50 (MDA-MB-435 [22]) of 23 nM. It also gave an inhibition of growth at 10 µM [23] of 90%, an inhibition at 1 µM (HUVEC [24]) of 89% and a GI50 [25] of 52 nM. The GI50 [26] was 57 nM, the GI50 (U-251 [27]) was 125 nM and the GI50 (SR [28]) was 31 nM. It also gave a growth at 10 µM (NCI-H522 [29]) of 5%, an inhibition of growth at 10 µM (MDA-MB-468 [30]) of 70% and a GI50 [31] of 62 nM. For the same compound, the Activity (HUVEC [32]) was “Non-toxic”, the GI50 [33] was 3820 nM and the GI50 (A498) was 6420 nM. It also gave an inhibition of growth at 10 µM (U-251 [34]) of 82%, an inhibition of growth at 10 µM [35] of 100% and a GI50 [36] of 48 nM. For the same compound, the inhibition of growth at 10 µM [37] was 83%, the GI50 (NCI-H522 [38]) was 31 nM and the inhibition of growth at 10 µM [39] was 66%. It also gave an inhibition at 10 µM (HT-29 [40]) of 71%, an inhibition of growth at 10 µM (HT-29 [41]) of 81% and an IC50 (HUVEC [42]) of 2480 nM. For the same compound, the GI50 (SK-MEL-5) was 59 nM and the growth at 10 µM (MDA-MB-435 [43]) was 62%.
